Patent publication US10835575B2, “Compositions and methods for treating disease using Salmonella T3SS effector protein (SipA)” (University of Massachusetts, priority 2013, dated 2020)

How the values were obtained:
CT26 tumors = assay: Subcutaneous CT26 murine colon cancer model, tumor volume; assay type: in vivo, Balb/c mice; conditions: doxorubicin alone, 10 mg/kg
From the text: (§1) FIG. 6A-D. The combined effects of SipA-AuNPs and exogenous doxorubicin prevent tumor growth. (FIG. 6A) Balb/c mice bearing subcutaneous CT26 tumors (mean tumor volumes of approximately 0.5 mm^3) received IP treatments for 15 days as described in the Materials and Methods section, (▪) Untreated, (●) AuNP alone, (▴A) SipA-AuNPs, (♦) Doxorubicin or (□) SipA-AuNP plus Doxorubicin (DOX). SipA-AuNPs conjugates improve the efficacy of doxorubicin. (*P<0.0001). (FIG. 6B) Accumulation of gold nanoparticles in the tumors shown in (FIG. 6A) was evaluated by SEM and X-ray microanalysis. Color intensity represents tumor penetration. The sections of tumor were imaged for X-ray analysis and X-ray mapping as described in the Materials and Methods section. (FIG. 6C) P-gp expression in the tumors shown in (FIG. 6A) was evaluated by western blot. Tumors were homogenized and lysed. Whole cell lysates were normalized for protein levels and probed for P-gp. Levels of P-gp were quantified by densitometry and presented on the bar cart. Densitometry was performed using ImageJ and results are presented as relative to the untreated cells. […] Levels of P-gp were quantified by densitometry and presented on the bar graph. […]
The subcutaneous tumor model. […] Tumor size was measured using calipers and volumes were estimated using the formula 0.5×length×(width)^2. […]

P-gp [1] = assay: P-gp expression in MCF-7 breast adenocarcinoma cells, Western blot; assay type: cell-based, human; conditions: MCF-7 cells, 80 or 160 μg/ml purified SipA, 3 h, compared to buffer control
Protocol: (§2) FIG. 3A-B. SipA-induced, dose-dependent P-gp down-regulation is conserved in other cancer cell types. (FIG. 3A) MCF-7 breast adenocarcinoma cells were left untreated (−) or exposed to 80 μg/ml or 160 μg/ml of purified SipA for 3 h. Normalized whole cell lysates were then probed for P-gp and GAPDH. Densitometry was analyzed by ImageJ and presented as relative to the untreated cells. (FIG. 3B) UM-UC-3 human bladder carcinoma cells were left untreated or exposed to 80 μg/ml or 160 μg/ml of purified SipA for 3 h, and then probed and analyzed as in (FIG. 3A).
(§3) Cell culture. The human intestinal adenocarcinoma cell line HCT8 were maintained in accordance with (8). The human breast adenocarcinoma cell line MCF-7, the human bladder transitional cell carcinoma cell line UM-UC-3, and the CT26 murine colon carcinoma cell line, were purchased from ATCC and were all maintained in DMEM F-12 containing a 10% fetal bovine serum, 100 U/ml penicillin, and 10 μg/ml streptomycin at 37° C. in 90% relative humidity and 5% CO2.
(§4) Cell lysates and Western Blot analysis. Cell lysates were harvested from S. Typhimurium-infected HCT8 cells, as previously described (8). Proteins were normalized to 30 μg, separated by SDS/PAGE (4-12% gradient; Biorad, Hercules, Calif.), and transferred to nitrocellulose (Bio-Rad; 0.45μ membrane). […]

P-gp [2] = assay: P-gp expression in UM-UC-3 bladder carcinoma cells, Western blot; assay type: cell-based, human; conditions: UM-UC-3 cells, 80 or 160 μg/ml purified SipA, 3 h
Protocol: as §2, §3, §4

PERP [3] = assay: PERP protein expression in human colonic cancers in vitro; assay type: cell-based
From the text: (§5) In a further embodiment, SipA increases the level of expression of PERP in cells, PERP is a tetraspan membrane protein originally identified as a transcriptional target of the p53 tumor suppressor (10). P53 regulates the cell cycle and, thus, functions as a tumor suppressor that is involved in preventing cancer. As such, p53 has been described as “the guardian of the genome”, referring to its role in conserving stability by preventing genome mutation. Fundamental to the tumor-suppressor role of p53 is the ability to engage in apoptosis. […] Studies investigating the interaction of SipA with the surface epithelial cells have been carried out (13, 14). The inventors used a split-ubiquitin based yeast-two hybrid analysis system (Dualsystems Biotech) with full length SipA as bait and a human cancer colon mRNA-based library as prey, to identify PERP, a p53 induced apoptotic effector, as a SipA interacting partner. […] While an understanding of the mechanism is not necessary, and without limiting the invention to any particular mechanism, and although the precise function of PERP in eliciting an apoptotic response remains unknown, initial reports indicate that PERP expression causes nuclear localization of p53 and increases the level of transcriptionally active p53 protein. […] Including increased protein stability, postranslational modifications, and enhanced nuclear accumulation. […]

P-gp [4] = assay: P-gp expression in HCT8 cell monolayers, Western blot; assay type: cell-based, human
Protocol: FIG. 5A-B. SipA-AuNPs decrease the expression of P-gp at a SipA dose nearly 500 times lower than free SipA. (FIG. 5A) Schematic presentation of P-gp knockdown mechanism via SipA-AuNP. (FIG. 5B) HCT8 cell monolayers were left untreated (−), exposed to […] 160 μg/ml of purified SipA, AuNP alone or AuNP-SipA (0.72 μg/ml of SipA).
as §3
as §4, with “membrane). Immuno-blots were performed using the murine monoclonal P-gp C219 antibody (calbiochem) diluted at 1:100.” for “membrane).”

PERP [5] = biological target: T1, PERP (Homo sapiens, UniProt Q96FX8); assay: Split-ubiquitin yeast-two hybrid analysis with full length SipA as bait; assay type: binding; conditions: human cancer colon mRNA-based library as prey; epithelial surfaces
T1 construct: host or cells: yeast (split-ubiquitin two-hybrid system)
From the text: as §5

P-gp [6] = assay: Colonic P-gp expression in mice colonized with S. Typhimurium strains; assay type: in vivo, Balb/c mice; conditions: SipA over-expressing strain (AJK63) vs isogenic SipA mutant strain (EE633), proximal colon, 48 hours
From the text: as §1, with “Whole cell lysates were normalized for protein levels and probed for P-gp.” left out, “cart.” for “cart. Densitometry was performed using ImageJ and results are presented as relative to the untreated cells.”
Since normal healthy intestinal epithelium display baseline expression of P-gp, the inventors evaluated the colonic expression of P-gp in mice colonized with a S. Typhimurium strain that over-expresses SipA (AJK63) compared to mice colonized with an equivalent amount of an isogenic SipA mutant strain (EE633). […]

Chain of P-gp (P08183 whole entry): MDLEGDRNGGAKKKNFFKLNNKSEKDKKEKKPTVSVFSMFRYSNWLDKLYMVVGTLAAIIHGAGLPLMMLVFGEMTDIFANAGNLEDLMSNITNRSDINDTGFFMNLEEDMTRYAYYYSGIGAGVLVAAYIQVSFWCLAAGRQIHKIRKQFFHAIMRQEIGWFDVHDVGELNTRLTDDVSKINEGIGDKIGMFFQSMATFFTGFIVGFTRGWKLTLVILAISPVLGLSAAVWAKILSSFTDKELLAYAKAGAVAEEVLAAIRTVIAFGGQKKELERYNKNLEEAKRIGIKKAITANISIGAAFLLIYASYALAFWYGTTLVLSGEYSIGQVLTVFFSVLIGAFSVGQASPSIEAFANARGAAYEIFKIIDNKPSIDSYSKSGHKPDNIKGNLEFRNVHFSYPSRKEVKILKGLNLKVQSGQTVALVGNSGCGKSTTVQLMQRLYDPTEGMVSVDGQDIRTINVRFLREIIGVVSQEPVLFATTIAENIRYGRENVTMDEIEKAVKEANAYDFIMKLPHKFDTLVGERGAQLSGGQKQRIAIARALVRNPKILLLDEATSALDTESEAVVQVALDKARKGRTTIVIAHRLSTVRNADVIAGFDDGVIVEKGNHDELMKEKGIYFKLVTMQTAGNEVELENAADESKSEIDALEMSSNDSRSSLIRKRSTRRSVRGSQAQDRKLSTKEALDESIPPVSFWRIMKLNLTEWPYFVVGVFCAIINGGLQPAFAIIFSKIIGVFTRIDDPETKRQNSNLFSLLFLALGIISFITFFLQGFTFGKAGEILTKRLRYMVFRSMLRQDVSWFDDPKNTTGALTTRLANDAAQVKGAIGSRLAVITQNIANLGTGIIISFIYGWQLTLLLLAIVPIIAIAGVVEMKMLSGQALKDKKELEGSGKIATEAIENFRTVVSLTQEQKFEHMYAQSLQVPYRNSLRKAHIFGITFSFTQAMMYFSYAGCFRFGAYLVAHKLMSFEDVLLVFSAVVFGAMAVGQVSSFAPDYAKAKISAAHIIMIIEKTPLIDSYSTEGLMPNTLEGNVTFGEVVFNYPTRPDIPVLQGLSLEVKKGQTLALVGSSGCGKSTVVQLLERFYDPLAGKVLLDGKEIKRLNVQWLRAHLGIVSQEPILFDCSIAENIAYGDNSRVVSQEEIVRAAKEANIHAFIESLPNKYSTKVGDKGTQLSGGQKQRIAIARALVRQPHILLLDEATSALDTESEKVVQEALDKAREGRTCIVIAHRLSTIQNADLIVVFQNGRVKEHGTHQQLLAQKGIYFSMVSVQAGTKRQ
T1 sequence (Q96FX8 whole entry): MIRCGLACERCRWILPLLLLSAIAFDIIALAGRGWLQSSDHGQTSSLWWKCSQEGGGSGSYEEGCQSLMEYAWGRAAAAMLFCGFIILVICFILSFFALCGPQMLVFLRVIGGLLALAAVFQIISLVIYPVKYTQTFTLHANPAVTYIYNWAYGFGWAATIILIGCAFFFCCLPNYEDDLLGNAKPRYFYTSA

COc1cccc2c1C(=O)c1c(O)c3c(c(O)c1C2=O)C[C@@](O)(C(=O)CO)C[C@@H]3O[C@H]1C[C@H](N)[C@H](O)[C@H](C)O1 [doxorubicin]
effect on tumor size (CT26 tumors): minimal effect on tumor size

SipA: Salmonella Typhimurium type III secreted effector protein, SEQ ID NO:01; purified as SipA-HA fusion protein
reduction of P-gp expression (P-gp [1]): 40%
reduction of P-gp expression (P-gp [2]): 95%
PERP protein expression (PERP [3]): up-regulates the protein expression of PERP
modulation of P-gp expression (P-gp [4]; HCT8 monolayers, 80 μg/ml or 160 μg/ml purified SipA-HA, 3 hours): dose dependent ability to modulate P-gp to the same degree as wild-type S. Typhimurium
interaction with PERP (PERP [5]): bind to PERP at epithelial surfaces
expression of P-gp in healthy murine intestinal epithelium (P-gp [6]): could modulate the expression of P-gp in healthy murine intestinal epithelium in vivo

lipopolysaccharide [reference compound]
modulation of P-gp by lipopolysaccharide (P-gp [4]; HCT8, purified LPS from S. typhimurium 0.1 to 100 μg/ml, 3 h): not attributed to trace amounts of lipopolysaccharide
